# Tests used:
# [1] = tested on: Influenza B (strain B/Lee/40); test: Anti-influenza cytopathic effect (CPE) assay in MDCK cells, prophylactic regimen (Example 7); assay type: cell-based; design: key to CPE score: 1: Complete monolayer with few gaps or dead cells; 2: Some gaps in the monolayer; dead cells more evident; 3: Increasing number of gaps in the monolayer concurrent with dead cells; 4: Gaps widely distributed throughout the monolayer and of increasing size; 5: Large holes forming as smaller gaps merge; copious dead cells evident; 6: Monolayer integrity lost. Small islands of attached cells amid predominantly dead cells; conditions: for CPE score: Influenza B, MDCK, virus + DMSO control 4
# MDCK cells = test: Cytotoxicity assay (MTT/CIMA) in MDCK cells (Example 7)
# U373 astroglioma cells [2] = test: Long term exposure, tetrazole reduction (CIMA) proliferation assay (Example 6); assay type: cell-based
# Procedure: (§1) Compound I(a) was termed CMPD A (LI568-026-02).
# (§2) Cells were passaged as required by trypsinization.
# (§3) Assay conditions: The effects of the test compound were assessed under long term exposure conditions. Cells were propagated as normal in T25 flasks in complete culture media supplemented with comparatively low concentrations of the compound (0, 1 and 5 μg/ml) for 28 days. At various times post-exposure, changes in proliferation rates were assessed using a standard CIMA assay.
# (§4) For the current study, cells that have been exposed to the compound were seeded in 96-well plates and proliferation rates measured over 24 and 72 h periods for comparison to that of similarly aged untreated cells.
# [3] = tested on: SH-SY5Y neuroblastoma cells; test: as above; assay type: cell-based; conditions: for AVERAGE (mean absorbance): SHSY5Y
# Procedure: as §1, §2, §3, §4
# U373 astroglioma cells [4] = test: MTT (CIMA) cell proliferation assay, acute and chronic exposure (Example 3)
# Procedure: (§5) Compound preparation: Stock solutions of test compounds were prepared in dimethylsulfoxide (DMSO) at 250 mg/ml. Working concentrations of 10 mg/ml were subsequently prepared from the stock solution and stored in 50 μl aliquots at −20° C. until used.
# (§6) Cells and cell culture: Proof-of-principle studies in this example focused on two human brain cancer cell lines, namely SH-SY5Y neuroblastoma cells and U373 astroglioma cells. […] Both cells were maintained in (50:50) F12:DMEM medium supplemented with 10% fetal calf serum (FCS) and antibiotics in a humidified, 5% CO2 environment. Cells were passaged as required by trypsinization.
# (§7) Assays conditions: The effects of the test compounds were assessed following acute and chronic exposure conditions. […] The test compounds were evaluated over a broad range of concentrations (0, 0.5, 1, 5, 10, 50, 100 and 250 μg/ml) with cells treated with equivalent concentrations of vehicle (DMSO) serving as controls.
# (§8) Cell proliferation assay: Cell proliferation was assessed using a standard colorimetric indicator of metabolic activity (CIMA) assay. In this assay, the reduction of yellow tetrazolium salt (MTT) to purple formazan by mitochondrial reductase enzymes in viable cells was evaluated as a measure of metabolic activity to determine the extent of cell proliferation within a culture. The resulting colour change that conferred a change in absorbance was quantified using a spectrophotometer (λ=500-600). Samples were diluted as required to ensure that values obtained with the MTT assay fell within the linear range of the protocol. Qualitative microscopic evaluation of treated cultures was used to determine if overt cytotoxicity was present and to supplement the quantitative CIMA data.
# [5] = tested on: Influenza A (strain A/PR/8/34); test: Anti-influenza cytopathic effect (CPE) assay in MDCK cells, prophylactic regimen (Example 7); assay type: cell-based; design: key to CPE score: 1: Complete monolayer with few gaps or dead cells; 2: Some gaps in the monolayer; dead cells more evident; 3: Increasing number of gaps in the monolayer concurrent with dead cells; 4: Gaps widely distributed throughout the monolayer and of increasing size; 5: Large holes forming as smaller gaps merge; copious dead cells evident; 6: Monolayer integrity lost. Small islands of attached cells amid predominantly dead cells; conditions: for CPE score: Influenza A, MDCK
# [6] = tested on: all three transformed neuronal cell lines (IMR32, NG108, NSC34); test: MTT (CIMA) cell proliferation assay (Example 4); conditions: 72 h post-treatment; 0.5-250 μg/ml
# Procedure: as §5
# (§9) Cells and cell culture: Three classes of cells were evaluated: 1) neuroblastoma cells, 2) neuroglioma cells, and 3) non-transformed human neurons (see below). All cells were maintained in appropriate culture medium supplemented with 10% fetal calf serum (FCS) and antibiotics in a humidified, 5% CO2 environment. Cells were passaged as required by trypsinization.
# (§10) Assay conditions: The effects of the test compounds were assessed following acute and chronic exposure conditions. […] Each compound was evaluated over a broad range of concentrations (0, 0.5, 1, 5, 10, 50, 100 and 250 μg/ml) with cells treated with equivalent concentrations of vehicle (DMSO) serving as controls.
# (§11) Cell proliferation assay: Cell proliferation was assessed using a standard colorimetric indicator of metabolic activity (CIMA) assay. In this assay, the reduction of yellow tetrazolium salt (MTT) to purple formazan by mitochondrial reductase enzymes in viable cells was evaluated as a measure of metabolic activity to determine the extent of cell proliferation within a culture. […]
# NSC34 motor neurons = test: MTT (CIMA) cell proliferation assay (Example 4); conditions: 72 h post-treatment
# Procedure: as §5, §9, §10, §11
# [7] = tested on: SH-SY5Y neuroblastoma cells; test: MTT (CIMA) cell proliferation assay, acute and chronic exposure (Example 3); conditions: SH-SY5Y
# Procedure: as §5, §6, §7, §8
# [8] = both acute and chronic regimens
smiles,measurement,setting,value
"O=CCCCN1C(=O)c2ccccc2C1=O [Compound I(a), 4-(1,3-dioxo-1,3-dihydro-2H-isoindol-2-yl)butanal]",effect on CPE (summary in words),[1]; Influenza B infection,mild to moderate reduction in CPE
same,CPE score,"[1]; 24 hpi, 0.5 μg/ml",3
same,CPE score,"[1]; 24 hpi, 1.0 μg/ml",3
same,CPE score,"[1]; 24 hpi, 5.0 μg/ml",2
same,CPE score,"[1]; 24 hpi, 10 μg/ml",2
same,CPE score,"[1]; 24 hpi, 25 μg/ml",4
same,CPE score,"[1]; 24 hpi, 50 μg/ml",4
same,CPE score,"[1]; 24 hpi, 100 μg/ml",5
same,CPE score,"[1]; 48 hpi, 0.5 μg/ml",3
same,CPE score,"[1]; 48 hpi, 1.0 μg/ml",3
same,CPE score,"[1]; 48 hpi, 5.0 μg/ml",3
same,CPE score,"[1]; 48 hpi, 10 μg/ml",3
same,CPE score,"[1]; 48 hpi, 25 μg/ml",4
same,CPE score,"[1]; 48 hpi, 50 μg/ml",5
same,CPE score,"[1]; 48 hpi, 100 μg/ml",6
same,"Toxicity (MTT), fold changes relative to vehicle controls","MDCK cells; 24 h exposure, 0.5 μg/ml",1.09 fold
same,"Toxicity (MTT), fold changes relative to vehicle controls","MDCK cells; 24 h exposure, 1.0 μg/ml",1.24 fold
same,"Toxicity (MTT), fold changes relative to vehicle controls","MDCK cells; 24 h exposure, 5.0 μg/ml",1.18 fold
same,"Toxicity (MTT), fold changes relative to vehicle controls","MDCK cells; 24 h exposure, 10 μg/ml",1.15 fold
same,"Toxicity (MTT), fold changes relative to vehicle controls","MDCK cells; 24 h exposure, 25 μg/ml",1.06 fold
same,"Toxicity (MTT), fold changes relative to vehicle controls","MDCK cells; 24 h exposure, 50 μg/ml",1.08 fold
same,"Toxicity (MTT), fold changes relative to vehicle controls","MDCK cells; 24 h exposure, 100 μg/ml",0.98 fold
same,"Toxicity (MTT), fold changes relative to vehicle controls","MDCK cells; 72 h exposure, 0.5 μg/ml",1.05 fold
same,"Toxicity (MTT), fold changes relative to vehicle controls","MDCK cells; 72 h exposure, 1.0 μg/ml",0.99 fold
same,"Toxicity (MTT), fold changes relative to vehicle controls","MDCK cells; 72 h exposure, 5.0 μg/ml",1.15 fold
same,"Toxicity (MTT), fold changes relative to vehicle controls","MDCK cells; 72 h exposure, 10 μg/ml",1.01 fold
same,"Toxicity (MTT), fold changes relative to vehicle controls","MDCK cells; 72 h exposure, 25 μg/ml",0.96 fold
same,"Toxicity (MTT), fold changes relative to vehicle controls","MDCK cells; 72 h exposure, 50 μg/ml, decreases exceeding 25% considered toxic",0.71^3 fold
same,"Toxicity (MTT), fold changes relative to vehicle controls","MDCK cells; 72 h exposure, 100 μg/ml, decreases exceeding 25% considered toxic",0.56 fold
same,cytotoxicity (summary in words),MDCK cells; higher concentrations (≧25 μg/ml),toxicity associated with the compound itself
same,AVERAGE (mean absorbance),"U373 astroglioma cells [2]; 14 d incubation with 1 μg/ml, 24 h, control 0 μg/ml 0.569",0.446
same,AVERAGE (mean absorbance),"U373 astroglioma cells [2]; 14 d incubation with 5 μg/ml, 24 h, control 0 μg/ml 0.569",0.437
same,AVERAGE (mean absorbance),"U373 astroglioma cells [2]; 21 d incubation with 1 μg/ml, 24 h, control 0 μg/ml 0.617",0.575
same,AVERAGE (mean absorbance),"U373 astroglioma cells [2]; 21 d incubation with 1 μg/ml, 72 h, control 0 μg/ml 0.547",0.502
same,AVERAGE (mean absorbance),"U373 astroglioma cells [2]; 21 d incubation with 5 μg/ml, 24 h, control 0 μg/ml 0.617",0.539
same,AVERAGE (mean absorbance),"U373 astroglioma cells [2]; 21 d incubation with 5 μg/ml, 72 h, control 0 μg/ml 0.547",0.478
same,AVERAGE (mean absorbance),"U373 astroglioma cells [2]; 28 d incubation with 1 μg/ml, 24 h, control 0 μg/ml 0.567",0.510
same,AVERAGE (mean absorbance),"U373 astroglioma cells [2]; 28 d incubation with 1 μg/ml, 72 h, control 0 μg/ml 0.598",0.507
same,AVERAGE (mean absorbance),"U373 astroglioma cells [2]; 28 d incubation with 5 μg/ml, 24 h, control 0 μg/ml 0.567",0.461
same,AVERAGE (mean absorbance),"U373 astroglioma cells [2]; 28 d incubation with 5 μg/ml, 72 h, control 0 μg/ml 0.598",0.514
same,average decrease in activity,"U373 astroglioma cells [2]; long term exposure up to 28 days, 1 and 5 μg/ml",approximately 20%
same,average decrease in activity,"[3]; SH-SY5Y, long term exposure up to 28 days, 1 and 5 μg/ml",approximately 20%
same,AVERAGE (mean absorbance),"[3]; 14 d incubation with 1 μg/ml, 24 h, control 0 μg/ml 0.492",0.508
same,AVERAGE (mean absorbance),"[3]; 14 d incubation with 5 μg/ml, 24 h, control 0 μg/ml 0.492",0.388
same,AVERAGE (mean absorbance),"[3]; 21 d incubation with 1 μg/ml, 24 h, control 0 μg/ml 0.307",0.311
same,AVERAGE (mean absorbance),"[3]; 21 d incubation with 1 μg/ml, 72 h, control 0 μg/ml 0.300",0.268
same,AVERAGE (mean absorbance),"[3]; 21 d incubation with 5 μg/ml, 24 h, control 0 μg/ml 0.307",0.277
same,AVERAGE (mean absorbance),"[3]; 21 d incubation with 5 μg/ml, 72 h, control 0 μg/ml 0.300",0.269
same,AVERAGE (mean absorbance),"[3]; 28 d incubation with 1 μg/ml, 24 h, control 0 μg/ml 0.601",0.597
same,AVERAGE (mean absorbance),"[3]; 28 d incubation with 1 μg/ml, 72 h, control 0 μg/ml 0.489",0.389
same,AVERAGE (mean absorbance),"[3]; 28 d incubation with 5 μg/ml, 24 h, control 0 μg/ml 0.601",0.531
same,AVERAGE (mean absorbance),"[3]; 28 d incubation with 5 μg/ml, 72 h, control 0 μg/ml 0.489",0.423
same,overt cell death / reductions in MTT activity,"U373 astroglioma cells [4]; acute (24 h) and chronic (72 h) treatment, 0.5-250 μg/ml",Neither overt cell death nor significant reductions in MTT activity
same,LD50,U373 astroglioma cells [4]; [8],exceeds 0.25 mg/ml
same,CPE score,"[5]; 0.5 μg/ml, virus + DMSO control 3",1 ^5
same,CPE score,"[5]; 0.5 μg/ml, virus + DMSO control 4",4
same,CPE score,"[5]; 1.0 μg/ml, virus + DMSO control 3",1
same,CPE score,"[5]; 1.0 μg/ml, virus + DMSO control 4",3
same,CPE score,"[5]; 5.0 μg/ml, virus + DMSO control 3",1
same,CPE score,"[5]; 5.0 μg/ml, virus + DMSO control 4",3
same,CPE score,"[5]; 10 μg/ml, virus + DMSO control 3",1
same,CPE score,"[5]; 10 μg/ml, virus + DMSO control 4",3
same,CPE score,"[5]; 25 μg/ml, virus + DMSO control 3",1
same,CPE score,"[5]; 25 μg/ml, virus + DMSO control 4",3
same,CPE score,"[5]; 50 μg/ml, virus + DMSO control 3",3
same,CPE score,"[5]; 50 μg/ml, virus + DMSO control 4",5
same,CPE score,"[5]; 100 μg/ml, virus + DMSO control 3",4
same,CPE score,"[5]; 100 μg/ml, virus + DMSO control 4",5
same,effect on CPE (summary in words),[5]; comparatively lower concentrations,mild to moderate reduction in CPE
same,viability/proliferation,[6],dose-dependent decreases in viability/proliferation
same,LD50,NSC34 motor neurons,< 0.25 mg/mL
same,decrease in MTT activity,"[7]; acute treatment (24 h), 0.25 mg/ml",approximately 30%
same,change in MTT activity,"[7]; acute treatment (24 h), other concentrations evaluated (below 0.25 mg/ml)",No significant change in MTT activity
same,LD50,[7]; [8],exceeds 0.25 mg/ml
same,decrease in MTT activity,"[7]; chronic treatment (72 h), 50 μg/ml",25%
same,decrease in MTT activity,"[7]; chronic treatment (72 h), 100 μg/ml",25%
same,decrease in MTT activity,"[7]; chronic treatment (72 h), 250 μg/ml",25%
